Reference: patent US10391268B2, “Device and method of delivering particles in the upper respiratory tract” (SERVICES MEDICAUX ARNOLD ET JOAN ZIDULKA INC., priority 2016, dated 2019)

Tested on: patient suffering from post-nasal drip and upper laryngeal syndrome
Test: two rounds of testing of orally administered, nasally exhaled aerosolized ciclesonide in a patient
Assay type: in vivo
Conditions: one patient; two rounds with an interval of two weeks; two sprays of 200 micrograms ciclesonide into FIG. 3 device, four to six oral inhalations each followed by nasal exhalation, morning and evening for two weeks
Source text: The Applicant has performed two rounds of testing on a patient suffering from post-nasal drip and upper laryngeal syndrome with an interval of two weeks between the rounds, each round consisting in administering a therapeutically effective dose of ciclesonide using the method of the present invention. […] In some embodiments, the therapeutically effective dose of ciclesonide for the treatment of upper airway cough syndrome is from 25 to 800 micrograms. Use of ciclesonide for the treatment of upper airway cough syndrome provides the advantage of avoiding fungal infections typically associated with administration of corticosteroid in the posterior nasal region, pharynx and the larynx.
In conducting the rounds of testing, the Applicant used the embodiment of the oral delivery device of the present invention shown in FIG. 3. […] It should be noted that in some embodiments, the effective volume is greater or smaller than 375 milliliters. In operation, the patient released two sprays of aerosolized ciclesonide into the oral delivery device, each one of the sprays containing 200 micrograms of ciclesonide, and performed four to six oral inhalations, each one of the inhalations being followed by a nasal exhalation into the ambient atmosphere. Each one of the inhalations drew ambient air into the oral delivery device to sweep in an additional amount of aerosolized ciclesonide. […]

## CC(C)C(=O)OCC(=O)[C@@]12O[C@H](C3CCCCC3)O[C@@H]1C[C@H]1[C@@H]3CCC4=CC(=O)C=C[C@]4(C)[C@H]3[C@@H](O)C[C@@]12C [ciclesonide]
  patient-reported symptoms typical of upper airway cough syndrome following each round: significant alleviation of the symptoms
